Among the data in PubChem BioAssay (NCI) are TGI values, retold here.

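Tested at 5 concentrations; 48 h exposure; 96-well plates; endpoints linearly interpolated, else capped at highest concentration. At the TGI there is no net growth.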

Test systems include SK-MEL-2 melanoma; 786-0 renal; CCRF-CEM leukemia; OVCAR-3 ovarian; SNB-75 CNS; MDA-N; UACC-257 melanoma; COLO 205 colon; K-562 leukemia; RXF 393 renal; HOP-92 NSCLC.
Assay in all cases: NCI anticancer screen, dose series, 48 h

`O=C(O)c1n[nH]nc1Cl`: the TGI with SK-MEL-2 melanoma, with 786-0 renal, with CCRF-CEM leukemia, in the assay with OVCAR-3 ovarian, with SNB-75 CNS and in the assay on MDA-N was greater than 100 µM throughout. Further, the TGI in the assay with UACC-257 melanoma, in the assay with COLO 205 colon, in the assay on K-562 leukemia and in the assay with RXF 393 renal was greater than 100 µM each time.
For the compound `CC(=O)n1nc(-c2ccccc2)n(/N=C/c2ccc([N+](=O)[O-])cc2)c1=O`, the TGI with SK-MEL-2 melanoma, in the assay on 786-0 renal, with CCRF-CEM leukemia, with OVCAR-3 ovarian, with SNB-75 CNS and with MDA-N was greater than 100 µM throughout. The TGI with HOP-92 NSCLC, in the assay with UACC-257 melanoma, with COLO 205 colon, with K-562 leukemia and in the assay on RXF 393 renal was greater than 100 µM in each case.
Consider `O=[N+]([O-])c1cc2oc(COc3ccccc3)nc2cc1Cl`, for which the TGI in the assay on SK-MEL-2 melanoma was 44.2 µM; with 786-0 renal, greater than 100 µM; in the assay on CCRF-CEM leukemia it was greater than 100 µM; with OVCAR-3 ovarian, 48.2 µM; in the assay on SNB-75 CNS, 58 µM; with MDA-N, 69.6 µM. In addition, the TGI was greater than 100 µM in the assay with HOP-92 NSCLC; 63.4 µM in the assay on UACC-257 melanoma; 36.6 µM in the assay on COLO 205 colon; greater than 100 µM in the assay with K-562 leukemia; 69.5 µM in the assay with RXF 393 renal.
Regarding `CC(C)(C)c1cc(C(P(=O)(c2ccccc2)c2ccccc2)P(=O)(c2ccccc2)c2ccccc2)cc(C(C)(C)C)c1O`, the TGI with SK-MEL-2 melanoma came out at 3.88 µM; with 786-0 renal, 7.23 µM; with CCRF-CEM leukemia, 7.88 µM; with OVCAR-3 ovarian it was 5.41 µM; in the assay on SNB-75 CNS, 7.39 µM; with MDA-N, 3.93 µM. Also, the TGI was found to be 5.65 µM with HOP-92 NSCLC; 4.18 µM in the assay with UACC-257 melanoma; 3.31 µM in the assay with COLO 205 colon; 9.93 µM with K-562 leukemia; 7.09 µM in the assay with RXF 393 renal.
With `NC(=O)C(N)Cc1ccc(O)cn1` (stereo not given), the TGI in the assay with 786-0 renal, in the assay with CCRF-CEM leukemia, in the assay on OVCAR-3 ovarian, in the assay on SNB-75 CNS, with MDA-N and in the assay on HOP-92 NSCLC was greater than 100 µM throughout. In addition, the TGI in the assay with UACC-257 melanoma, in the assay on COLO 205 colon, in the assay with K-562 leukemia and in the assay on RXF 393 renal was greater than 100 µM each time.
In the case of `COc1ccc(N=C2SC(=N/N=c3\sc4ccccc4n3C)SC2=Nc2ccc(OC)cc2)cc1`, the TGI with SK-MEL-2 melanoma was greater than 100 µM; in the assay with 786-0 renal it was greater than 100 µM; with OVCAR-3 ovarian, greater than 100 µM; with SNB-75 CNS, 94.5 µM; with MDA-N it was greater than 100 µM; with HOP-92 NSCLC, greater than 100 µM. Besides, the TGI in the assay on UACC-257 melanoma, in the assay with COLO 205 colon, in the assay with K-562 leukemia and in the assay with RXF 393 renal was greater than 100 µM in each case.
Take `CC(C)(C)C(=O)OCC1CCC[N+]2(C)CCCCC12` (stereo not given): the TGI in the assay on SK-MEL-2 melanoma, in the assay on 786-0 renal, in the assay with CCRF-CEM leukemia, in the assay with OVCAR-3 ovarian, in the assay on SNB-75 CNS and in the assay with MDA-N was greater than 100 µM throughout. The TGI with HOP-92 NSCLC, in the assay on UACC-257 melanoma, in the assay with COLO 205 colon, with K-562 leukemia and in the assay with RXF 393 renal was greater than 100 µM in each case.
For the compound `Oc1ccc2ccccc2c1/C=C/c1ccc2c(Br)cc(Br)c(O)c2n1`, the TGI was determined as 29.7 µM in the assay on SK-MEL-2 melanoma; 19.5 µM in the assay with 786-0 renal; 15.6 µM in the assay on CCRF-CEM leukemia; 10 µM in the assay on OVCAR-3 ovarian; 30.8 µM in the assay with SNB-75 CNS; 26.7 µM with MDA-N. In addition, the TGI in the assay with HOP-92 NSCLC was 35.5 µM; with UACC-257 melanoma it was 22.9 µM; in the assay with COLO 205 colon, 21.9 µM; in the assay on K-562 leukemia it was 22.5 µM; with RXF 393 renal, 24.7 µM.
As for `COc1cc(/C=C2\CCC(C)C3C2=NN(C(C)=O)C3c2cc(OC)c(OC)c(OC)c2)cc(OC)c1OC` (stereo not given), the TGI was greater than 42.4 µM in the assay with SK-MEL-2 melanoma; greater than 100 µM with 786-0 renal; greater than 100 µM with CCRF-CEM leukemia; greater than 100 µM in the assay with OVCAR-3 ovarian; greater than 54.6 µM in the assay with SNB-75 CNS; greater than 100 µM in the assay on MDA-N. The TGI in the assay with HOP-92 NSCLC, in the assay on UACC-257 melanoma, in the assay with COLO 205 colon, in the assay on K-562 leukemia and in the assay with RXF 393 renal was greater than 100 µM in each case.
Consider `CCC(C)(C)/C(CC(O)(C(F)(F)F)C(F)(F)F)=N\O`, for which the TGI with SK-MEL-2 melanoma, in the assay on 786-0 renal, in the assay with CCRF-CEM leukemia, in the assay on OVCAR-3 ovarian, with SNB-75 CNS and in the assay on MDA-N was greater than 100 µM each time. Also, the TGI with HOP-92 NSCLC, in the assay with COLO 205 colon, with K-562 leukemia and in the assay on RXF 393 renal was greater than 100 µM each time.
On to `CN(c1ccc(Cl)cc1)S(=O)(=O)c1cccc([N+](=O)[O-])c1`, for which the TGI in the assay with SK-MEL-2 melanoma, in the assay on 786-0 renal, with CCRF-CEM leukemia, with OVCAR-3 ovarian, in the assay with SNB-75 CNS and in the assay on MDA-N was greater than 100 µM each time. The TGI in the assay on UACC-257 melanoma, in the assay on COLO 205 colon, with K-562 leukemia and with RXF 393 renal was greater than 100 µM each time.
`Cc1cc2nc3c(C#N)c(-c4ccccc4)cc(Nc4ccc(Cl)cc4)n3c2cc1C`: the TGI in the assay on SK-MEL-2 melanoma, in the assay on 786-0 renal, in the assay on CCRF-CEM leukemia, in the assay on OVCAR-3 ovarian, in the assay with SNB-75 CNS and with MDA-N was greater than 100 µM in each case. The TGI with UACC-257 melanoma, in the assay on COLO 205 colon and in the assay with RXF 393 renal was greater than 100 µM throughout.
In the case of `CN(c1ccc(Cl)cc1)S(=O)(=O)c1ccc([N+](=O)[O-])cc1`, the TGI with SK-MEL-2 melanoma, in the assay on 786-0 renal, in the assay with CCRF-CEM leukemia, in the assay with OVCAR-3 ovarian, in the assay with SNB-75 CNS and in the assay on MDA-N was greater than 100 µM in each case. In addition, the TGI with UACC-257 melanoma, in the assay on COLO 205 colon, in the assay on K-562 leukemia and with RXF 393 renal was greater than 100 µM in each case.
